The record followed here is paper PMC2672171, “In Vivo Delta Opioid Receptor Internalization Controls Behavioral Effects of Agonists” (PLoS ONE, 2009).

Assay [1] concerns the target T1, DOR-eGFP (delta opioid receptor-eGFP) (Mus musculus, UniProt P32300).
T1 construct: gene Oprd1; Full-length mouse delta receptor with C-terminal eGFP, knocked in at the native gene (exon 3, 5' of the stop codon); whole brain membranes of knock-in mice
Briefly: […]GTPgammaS binding, whole brain membranes. Format: biochemical. The settings on record: agonist; 30 µM GDP, 0.1 nM [35S]GTPgammaS, 3 mM MgCl2, 100 mM NaCl, pH 7.4, 1 h, 25 °C; read-out: G protein coupling ([^35S]GTPγS binding) / EC50 (nM) / Striatum / E1/2 (min). (In general: GTPγS is a poorly hydrolysed GTP analogue; its binding reports G protein activation.)

The target of assay [2] is T1, DOR-eGFP (delta opioid receptor-eGFP). Briefly: [3H]naltrindole competition binding, whole brain membranes. Particulars: 1 nM [3H]naltrindole, 1 h, 25 °C; read-out: Affinity (Competition Binding) / Ki (nM) / Concentration. An excerpt:
[3H]naltrindole competition binding, whole brain membranes on DOR-eGFP (delta opioid receptor-eGFP)

T1 sequence (P32300 whole entry): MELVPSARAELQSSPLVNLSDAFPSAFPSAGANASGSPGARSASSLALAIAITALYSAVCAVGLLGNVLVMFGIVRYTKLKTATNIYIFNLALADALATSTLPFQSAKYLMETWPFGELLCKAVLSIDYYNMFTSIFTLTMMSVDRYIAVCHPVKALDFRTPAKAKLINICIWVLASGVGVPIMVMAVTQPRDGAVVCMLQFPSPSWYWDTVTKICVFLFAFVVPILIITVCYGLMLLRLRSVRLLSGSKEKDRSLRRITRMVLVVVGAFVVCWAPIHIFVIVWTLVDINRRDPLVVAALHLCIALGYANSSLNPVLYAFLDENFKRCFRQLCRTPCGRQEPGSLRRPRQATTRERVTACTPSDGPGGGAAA

As for `CCN(CC)C(=O)c1ccc(C(=C2CCNCC2)c2ccccc2)cc1` [ARM390, N,N-diethyl-4-(phenyl-piperidin-4-ylidenemethyl)-benzamide], the EC50 in assay [1] was determined as 169 ± 9.5 nM. In addition, the Ki in assay [2] amounted to 2.3 ± 0.3 nM.
